We go through four substances from patent publication US5824647A, “Chemotactic wound healing peptides” (priority 1995, dated 1998).

Entries after “also recorded” stand apart in the source; their conditions may differ.

Assay [1] relates to infant foreskin fibroblasts. Description: Collagen production by fibroblasts (modified Peterofsky-Diegelman assay). In kind it is cell-based, human. Conditions: [3H]proline incorporation into collagenase-sensitive protein. The procedure: The peptides of the invention were also found to stimulate collagen production by fibroblasts. Collagen production by fibroblasts in response to the peptides of the present invention was measured utilizing a modified Peterofsky-Diegelman assay. The assay is used to determine whether the peptides of the invention stimulate or inhibit collagen production by fibroblasts.
Low passage (4-12 subpassages) infant foreskin fibroblasts were plated out at a density of 10^5 cells/well in Falcon 3008 multiwell plates in complete maintenance medium containing 10% FCS. After cells reached confluency (72 hr), the medium was changed daily for 3 days, each time being replaced with serum-free maintenance medium containing fresh ascorbic acid. Samples (50 μl) were added to triplicate wells containing 450 μl serum-free MEM supplemented with fresh ascorbic acid and [^3 H]-proline (sp. act. 20 Ci/mmole), but no non-essential amino acids. After an additional 24 hr of culture, supernatants were reacted with protease-free bacterial collagenase to digest all collagen. Similar aliquots of unreacted supernatants and bacterial collagenase-treated supernatants were precipitated with cold 10% trichloroacetic acid (TCA) and were centrifuged for 5 minutes in a Beckman microfuge. Aliquots of the supernatants, after TCA precipitated proteins were pelleted, were placed in vials containing Hydrofluor and then were counted in a scintillation counter. CPM from TCA precipitated supernatants not reacted with bacterial collagenase were subtracted from each culture. The resulting CPM was a reflection of the collagen produced by that culture.
A modified Peterofsky-Diegelmann assay was used to screen peptide samples for their ability to stimulate or inhibit collagen production. Low passage (4-12 subpassages) infant foreskin fibroblast were plated out at a density of 10^5 cells/well of Falcon 3008 multiwell plates in complete maintenance medium containing 10% FCS. After cells reached confluency (72 hr) the medium was changed daily for 3 days, each time being replaced with serum-free maintenance medium containing fresh ascorbic acid. Samples ([…]) were added to triplicate wells containing […] serum free MEM supplemented with fresh ascorbic acid and [^3 H]-proline (sp. act. 20 Ci/mmole), but no non-essential amino acids. After an additional 24 hours of culture, supernatants were reacted with protease-free bacterial collagenase to digest all collagen. Similar aliquots of unreacted supernatants and bacterial collagenase-treated supernatants were precipitated with cold 10% trichloroacetic acid (TCA) and were centrifuged for 5 minutes in a Beckman microfuge. Aliquots of the supernatants, after TCA precipitated proteins were pelleted, were placed in vials containing Hydrofluor and then were counted in a scintillation counter. CPM from TCA precipitated supernatants not reacted with bacterial collagenase were subtracted from each culture. The resulting CPM was a reflection of the collagen produced by that culture.
Collagen production was measured following administration of the various 7-mer peptides 368-374 (SEQ ID NOs. 1-5) to fibroblasts. Peptides […] (SEQ ID NO. 1), LYYIGKT (SEQ ID NO. 2), LYYVGRT (SEQ ID NO. 3), IYYVGRN (SEQ ID NO. 4) and IYYVGRT (SEQ ID NO. 5) were synthesized by the Merrifield technique, purified by HPLC, and tested at different concentrations in the same assay for their ability to stimulate production of collagen in confluent cultures of infant foreskin fibroblasts. Collagen production was measured by incorporation of [^3 H]proline into collagenase-sensitive protein. All samples were tested in triplicate, and values represent the mean of triplicate determinations. Data are expressed as "% stimulation" of collagen production relative to control production in cultures with plain culture medium only added. […]

The test system of assay [2] is Human peripheral blood neutrophils. Nature of the assay: Neutrophil chemotaxis in modified Boyden chambers. Conditions: peptide in lower compartment of modified Boyden chamber. In kind it is cell-based. The source says:
Human peripheral blood neutrophils and monocytes, isolated from whole blood using standard techniques may also be used in the chemotaxis assays, in a manner similar to infant foreskin fibroblasts, to measure the chemotactic activity of the peptides towards inflammatory cells. Such cells may also be maintained in supplemented MEM as above, to which 5-10% FCS may be added. When using neutrophils and monocytes, instead of fibroblasts, the polycarbonate filters used in the modified Boyden chambers had pore sizes of 2 and 3 microns, respectively. As above, all assays were carried out in quadruplicate.

Assay [3] has as its system infant foreskin fibroblasts. Nature of the assay: Fibroblast chemotaxis in modified Boyden chambers (incl. checkerboard and deactivation studies). In kind it is cell-based, human. The note with it: for fibroblast chemotaxis / migration (in words): peptide in lower compartment of modified Boyden chamber; for Mean Fibroblasts per 20 OIF + SEM: Experiment 1, lower compartment: TGF-β1 50 pg/ml, peptide 368-374 1.4 × 10^-5 M, peptide 364-378 6.7 × 10^-7 M, fibronectin 20 μg/ml; for chemotactic response of fibroblasts to peptide with fibronectin in upper chamber (in words): unrelated chemoattractant fibronectin in the upper chamber. The procedure:
Target cells used in in vitro chemotaxis assays were infant foreskin fibroblasts obtained by establishing monolayer cultures from explants of tissue. Cells were maintained in Eagle's minimum essential medium (MEM) supplemented with non-essential amino acids, antibiotics, 50 ug/ml ascorbic acid, and 9% fetal calf serum (FCS). Cells were passaged by trypsinization every 3-5 days.
Infant foreskin fibroblasts were harvested from monolayer culture by gentle trypsinization, washed twice in serum-free Eagles's MEM and adjusted to a final concentration of 250,000 cells/ml. The cell suspension (0.4 ml) was added to the upper compartments of blind well modified Boyden chemotaxis chambers. The peptides of the invention being assayed for chemotactic activity were solubilized in glycylglycine (0.015M) buffered NaCl (0.14M), pH 7.2, hereinafter referred to as GGBS, and diluted 50% with serum-free MEM. Test substances were added to the lower compartment of the chemotaxis chambers. Gelatin-treated polycarbonate filters (8 micron pore size) were interposed between the lowest compartment and the upper cell compartment. Loaded chambers were incubated at 37° C. in a humidified atmosphere containing 5% CO2 for 150 minutes. After incubation, the chambers were disassembled, the filters removed, stained with hematoxylin, and mounted on glass cover slips. Fibroblast chemotaxis was quantitated by counting the number of fibroblasts in 20 oil immersion fields (OIF) that migrated and adhered to the lower surface of each filter. Samples were tested in quadruplicate and results are expressed as mean number of fibroblasts per 20 OIF±standard error of the mean (SEM). Chemotaxis neutralization studies were performed by adding TGF-β1 or fibronectin to the upper cell compartment and testing for effects on fibroblast migration to the TGF-β peptides.
Zigmond-Hirsch checkerboard analysis (Zigmond & Hirsch, J. Exptl. Med. 137:387, 1972) was performed to determine whether the 7-mer peptide 368-374 (Val Tyr Tyr Val Gly Arg Lys) induced chemotaxis of fibroblasts, monocytes and neutrophils.
Deactivation studies were utilized to determine whether the peptides of the invention containing the 7-mer peptide amino acid sequence induced chemotaxis via cellular receptors and mechanisms utilized by intact TGF-β.

The subject of assay [4] is fibroblasts. Nature of the assay: HLA-DR, fibroblast effects. In kind it is cell-based. The arrangement: key: NE = No Effect. Conditions: Table II summary.
In a further assay the test system is T-Cell. Nature of the assay: T-cell proliferation. Also noted: key: NE = No Effect. Conditions: Table II summary. In kind it is cell-based.
Assay [5] concerns fibroblasts. Description: Hyaluronate production by fibroblasts. The arrangement: key to FIBROBLAST EFFECTS Hyaluronate: NE = No Effect. Format: cell-based.
[6] abbreviates: Media added to upper compartment.
Where [7] appears, read: TGF-β1 (50 pg/ml) added to upper compartment.

On to “340-391: synthetic peptide corresponding to sequence 340-391 of TGF-β1; positive chemotactic control (VLALYNQHNPGASAAPCCVPQALEPLPIVYYVGRKPKVEQLSNMIVRSCKCS; printed: Val Leu Ala Leu Tyr Asn Gln His Asn Pro Gly Ala Ser Ala Ala Pro Cys Cys Val Pro Gln Ala Leu Glu Pro Leu Pro Ile Val Tyr Tyr Val Gly Arg Lys Pro Lys Val Glu Gln Leu Ser Asn Met Ile Val Arg Ser Cys Lys Cys Ser) [Peptide 340-391]”, for which the “collagen production by fibroblasts (in words)” value (“collagen production” for short) in assay [1] is reported as “stimulated to some degree”. In assay [2], the “neutrophil chemotaxis / migration (in words)” value is on record as “migrated in a dose dependent fashion”. The “fibroblast chemotaxis / migration (in words)” value in assay [3] was “migrated in a dose dependent fashion”. Besides, the “FIBROBLAST EFFECTS HLA-DR” value in the assay on fibroblasts [4] was “NE”.
For the substance “PLPIVYYVGRKPKVE [Peptide 364-378, 15-mer peptide 364-378 of TGF-β1]”, in assay [1], the “collagen production” value is “stimulated to some degree”. Moreover, the “T-Cell Proliferation” value in the assay with T-Cell is “NE”. The “neutrophil chemotaxis / migration (in words)” value in assay [2] is “induced migration of fibroblasts, monocytes and neutrophils in a dose dependent fashion”. Also, in assay [3] (setting [6]), the “Mean Fibroblasts per 20 OIF + SEM” value was determined as 122 ± 8 Fibroblasts per 20 OIF. Besides, in assay [3] (setting [7]), the “Mean Fibroblasts per 20 OIF + SEM” value is listed as 37 ± 5 Fibroblasts per 20 OIF. Moreover, in assay [3], the “fibroblast chemotaxis / migration (in words)” value was “induced migration of fibroblasts, monocytes and neutrophils in a dose dependent fashion”; the “chemotactic response of fibroblasts to peptide with fibronectin in upper chamber (in words)” value is listed as “No such inhibition was seen”. The “FIBROBLAST EFFECTS HLA-DR” value in the assay on fibroblasts [4] is reported as “NE”.
“VYYVGRK [Peptide 368-374, 7-mer corresponding to amino acids 368-374 of TGF-β1]”: the “collagen production” value in assay [1] was “stimulated to some degree; also recorded: does stimulate fibroblast chemotaxis and synthesis of collagen and hyaluronic acid”. Besides, the “T-Cell Proliferation” value with T-Cell is “NE”. In the assay on fibroblasts [5], the “synthesis of hyaluronic acid (in words)” value is “does stimulate fibroblast chemotaxis and synthesis of collagen and hyaluronic acid”. Moreover, in assay [2], the “neutrophil chemotaxis / migration (in words)” value was “induced migration of fibroblasts, monocytes and neutrophils in a dose dependent fashion”. In addition, the results for the “Mean Fibroblasts per 20 OIF + SEM” value in assay [3] (setting [6]) and in assay [3] (setting [7]) were 75 ± 2 Fibroblasts per 20 OIF and 23 ± 1 Fibroblasts per 20 OIF, respectively. Also, the “Fibroblasts per 20 OIF (mean ± SEM)” value came out at 38 ± 2 Fibroblasts per 20 OIF in assay [3] (checkerboard: upper compartment 0, lower compartment 1.4 × 10^-6 M); 58 ± 5 Fibroblasts per 20 OIF in assay [3] (checkerboard: upper compartment 0, lower compartment 7.0 × 10^-6 M); 20 ± 3 Fibroblasts per 20 OIF in assay [3] (checkerboard: upper compartment 0, lower compartment 7.0 × 10^-7 M); 9 ± 1 Fibroblasts per 20 OIF in assay [3] (checkerboard: upper compartment 1.4 × 10^-6 M, lower compartment 0); 9 ± 1 Fibroblasts per 20 OIF in assay [3] (checkerboard: upper compartment 1.4 × 10^-6 M, lower compartment 1.4 × 10^-6 M); 24 ± 2 Fibroblasts per 20 OIF in assay [3] (checkerboard: upper compartment 1.4 × 10^-6 M, lower compartment 7.0 × 10^-6 M). Moreover, the “Fibroblasts per 20 OIF (mean ± SEM)” value in assay [3] (checkerboard: upper compartment 1.4 × 10^-6 M, lower compartment 7.0 × 10^-7 M) is recorded as 10 ± 1 Fibroblasts per 20 OIF; in assay [3] (checkerboard: upper compartment 7.0 × 10^-6 M, lower compartment 0), 7 ± 1 Fibroblasts per 20 OIF; in assay [3] (checkerboard: upper compartment 7.0 × 10^-6 M, lower compartment 1.4 × 10^-6 M), 8 ± 1 Fibroblasts per 20 OIF; in assay [3] (checkerboard: upper compartment 7.0 × 10^-6 M, lower compartment 7.0 × 10^-6 M) it was 11 ± 1 Fibroblasts per 20 OIF; in assay [3] (checkerboard: upper compartment 7.0 × 10^-6 M, lower compartment 7.0 × 10^-7 M) it was 7 ± 1 Fibroblasts per 20 OIF; in assay [3] (checkerboard: upper compartment 7.0 × 10^-7 M, lower compartment 0), 8 ± 1 Fibroblasts per 20 OIF. Moreover, the “Fibroblasts per 20 OIF (mean ± SEM)” value in assay [3] (checkerboard: upper compartment 7.0 × 10^-7 M, lower compartment 1.4 × 10^-6 M) was determined as 24 ± 2 Fibroblasts per 20 OIF; in assay [3] (checkerboard: upper compartment 7.0 × 10^-7 M, lower compartment 7.0 × 10^-6 M) it was 39 ± 4 Fibroblasts per 20 OIF; in assay [3] (checkerboard: upper compartment 7.0 × 10^-7 M, lower compartment 7.0 × 10^-7 M), 10 ± 1 Fibroblasts per 20 OIF. For the same substance, the “fibroblast chemotaxis / migration (in words)” value was “does stimulate fibroblast chemotaxis and synthesis of collagen and hyaluronic acid; also recorded: induced migration of fibroblasts, monocytes and neutrophils in a dose dependent fashion; also recorded: induced primarily chemotaxis of fibroblasts” in assay [3]; “induced fibroblast chemotaxis at all of the concentration tested” in assay [3] (listed as VYYVGRKK). For the same substance, the “chemotactic response of fibroblasts to peptide with fibronectin in upper chamber (in words)” value in assay [3] is reported as “No such inhibition was seen”. In addition, in the assay on fibroblasts [4], the “FIBROBLAST EFFECTS HLA-DR” value is given as “NE”.
For “YSKVLALYNQHNPGASAAPC (YSKVLALYNQHNPGASAAPC) [Peptide 337-356]”, in assay [1], the “collagen production” value is “stimulated to some degree”. The “FIBROBLAST EFFECTS Hyaluronate” value in the assay on fibroblasts [5] (Table II summary) was “NE”. Moreover, in assay [3], the “fibroblast chemotaxis / migration (in words)” value is on record as “has the ability to induce fibroblast chemotaxis” and the “chemotactic response of fibroblasts to peptide with fibronectin in upper chamber (in words)” value was “No such inhibition was seen”. Besides, the “FIBROBLAST EFFECTS HLA-DR” value with fibroblasts [4] is reported as “NE”.
